US20260224486A1, “DIANHYDROHEXITOL BASED IONIZABLE LIPIDS FOR NUCLEIC ACID DELIVERY” (SANOFI PASTEUR INC., priority 2023, published 2026)

Legend:
[1] = Lipid nanoparticle size and polydispersity index by dynamic light scattering (Malvern Zetasizer); assay type: physicochemical; settings: hEPO mRNA LNP, Process A, Cationic Lipid:DMG-PEG2000:Cholesterol:DOPE 40:1.5:28.5:30 mol %, N/P 4
Description: The lipid nanoparticles in the examples of the present invention were formulated using Process A of WO 2018/089801 (see, e.g., Example 1 and FIG. 1 of WO 2018/089801). Process A (“A”) relates to a conventional method of encapsulating mRNA by mixing mRNA with a mixture of lipids, without first pre-forming the lipids into lipid nanoparticles. In an exemplary process, an ethanolic solution of a mixture of lipids (cationic lipid, phosphatidylethanolamine, cholesterol, and polyethylene glycol-lipid) at a fixed lipid to mRNA ratio were combined with an aqueous buffered solution of target mRNA at an acidic pH under controlled conditions to yield a suspension of uniform LNPs. After ultrafiltration and diafiltration into a suitable diluent system, the resulting nanoparticle suspensions were diluted to final concentration, filtered, and stored frozen at −80° C. until use.
(§1) Lipid nanoparticle formulations of Table 1 were prepared by Process A. All of the lipid nanoparticle formulations comprised hEPO mRNA and the different lipids (Cationic Lipid: DMG-PEG2000: Cholesterol: DOPE) in mol % ratios of 40:1.5:28.5:30 (Cationic Lipid: DMG-PEG2000: Cholesterol: DOPE).
The Polydispersity Index (Pdl) of lipid nanoparticles can be determined by diluting the formulation in 10% trehalose at about 0.1 mg/ml mRNA concentration and then measuring the size on Malvern zetasizer. The lipid nanoparticle size can be obtained with Malvern Zetasizer Nano-ZS.
Dynamic light scattering (DLS) measurements were performed using a Malvern Instruments Zetasizer with a backscattering detector angle of 173° and a 4-mW, 633-nm He—Ne laser (Worcestershire, UK). The samples were analyzed by diluting in 10% Trehalose and measuring the size and Poly dispersity Index (PDI) in an optical grade polystyrene cuvette.

[2] = mRNA encapsulation efficiency of lipid nanoparticles (RiboGreen assay); assay type: physicochemical; settings: hEPO mRNA LNP, Process A, Cationic Lipid:DMG-PEG2000:Cholesterol:DOPE 40:1.5:28.5:30 mol %, N/P 4
Description: In embodiments, the lipid nanoparticle encapsulates a nucleic acid, optionally an mRNA encoding a peptide or protein. In embodiments, the lipid nanoparticle encapsulates an mRNA encoding a peptide or protein, optionally for use in a vaccine. In embodiments, the peptide is an antigen. As used herein, the phrase “encapsulation percentage” refers to the fraction of therapeutic agent (e.g. mRNA) that is effectively encapsulated within a liposomal-based vehicle (e.g. a lipid nanoparticle) relative to the initial fraction of therapeutic agent present in the lipid phase. In embodiments, the lipid nanoparticles have an encapsulation percentage for mRNA of at least 50%. In embodiments, the lipid nanoparticles have an encapsulation percentage for mRNA of at least 55%. In embodiments, the lipid nanoparticles have an encapsulation percentage for mRNA of at least 60%. In embodiments, the lipid nanoparticles have an encapsulation percentage for mRNA of at least 65%. In embodiments, the lipid nanoparticles have an encapsulation percentage for mRNA of at least 70%. In embodiments, the lipid nanoparticles have an encapsulation percentage for mRNA of at least 75%. In embodiments, the lipid nanoparticles have an encapsulation percentage for mRNA of at least 80%. In embodiments, the lipid nanoparticles have an encapsulation percentage for mRNA of at least 85%. In embodiments, the lipid nanoparticles have an encapsulation percentage for mRNA of at least 90%. In embodiments, the lipid nanoparticles have an encapsulation percentage for mRNA of at least 95%. In embodiments, the encapsulation percentage is calculated by performing the Ribogreen assay (Invitrogen) with and without the presence of 0.1% Triton-X 100.
as §1
The RiboGreen Assay is a fluorescence-based method for the determination of mRNA concentration (Total and Free) and % encapsulation using Quant-iT™ RiboGreen® RNA reagent in mRNA containing lipid nanoparticles.
• To each of the standards (Blank, mRNA-1, mRNA-2. mRNA-3, mRNA-4, mRNA-5) and Samples (free mRNA and total mRNA), add 1.0 mL of 200-fold Ribogreen Reagent Solution and gently mix by inversion. This is a 2× Dilution. • Add 200 μL of each standard and sample in triplicate using the reverse pipetting technique in a 96-well Costar Black with Clear Background Plate. Ensure no bubbles are present in the plate before the fluorescence reading. • Read the fluorescence signal using the below instrument parameters: • Read Type: Fluorescence, Bottom Read • Excitation: 485 nm; Cut-off: 515 nm; Emission: 530 nm • Plate Type: 96-well Costar Black with Clear Background
The average fluorescence from each calibration standard is plotted against the concentration to generate a linear calibration curve using the MS Excel software. The coefficient of determination (R^2) of calibration curve must be R^2>0.99.
[formula] • Where, • Y=average fluorescence value • m: slope • x: concentration (pg/mL) • c: y-intercept • Using the linear equation, calculate the concentration of free and total mRNA concentration in the test sample by replacing the y value in the equation with the average fluorescence value of each respective sample • Once the concentration is determined, the actual concentration in the sample can be back-calculated by multiplying the concentration in the test sample with the dilution factor (DF) as follows:
[formula] [formula] • Concentration of encapsulated mRNA can be determined by subtracting the concentration of free mRNA from the total mRNA. • % Encapsulation can then be calculated by taking the ratio of encapsulated mRNA over total mRNA and multiplying the result with 100.

[3] = system: BALB/cJ mice; assay: Delivery of hEPO mRNA by intramuscular administration of LNPs; serum hEPO by ELISA; assay type: in vivo, Mouse; settings: for hEPO 6 Hr (ng/mL) Mean: Table 3, isomannide-derived lipids
Procedure: In summary, lipid screening studies were conducted with female BALB/cJ mice 6-8 weeks of age. Mice were dosed with 0.1 μg in 30 μL of LNPs by a single intramuscular (IM) injection into the gastrocnemius leg muscle. Blood samples were taken 6 and 24 hours post injection and hEPO levels were measured in the blood serum of the mice using an ELISA assay according to the manufacture's protocol.
Treatment Regimen: On Day 1, animals from Groups 1-33 were dosed via intramuscular injection while under light isoflurane anesthesia according to the study design table above. Animals in Groups 1-33 were injected with EPO mRNA LNPs in the right leg only. Groups 1 and 17 animals received MC3 control.
Interim Sample Collections: Interim whole blood (^~50 μL) was collected by tail snip or saphenous vein at 6 and 24 hours post dose administration (±5%). Blood samples were collected into serum separator tubes, allowed to clot at room temperature for at least 10 minutes, centrifuged at ambient temperature at minimum 1000 g for 10 minutes and the serum was extracted. All serum samples were stored at nominally −70° C. until analysis hEPO by the Testing Facility. The results of the EPO analysis were included in the Data Submission.
Terminal Blood Collections: Whole blood was collected via cardiac puncture into serum separator tube, allowed to clot at room temperature for at least 10 minutes, centrifuged at ambient temperature at minimum 1000 g for 10 minutes and the serum was extracted. Serum samples were stored at nominally −70° C. until analyzed for hEPO by the Test Facility.
ELISA Assay: Human erythropoietin (hEPO) levels in sera samples were determined by ELISA kit (R&D systems, Cat #DEP-00) according to the manufactory instruction and the results were included in the Data Submission. The “shaker” protocol was used. The serum samples were diluted between 1:40 and 1:100.

[4] = Table 2, isosorbide-derived lipids, mouse serum 6 hours post single IM injection of 0.1 μg hEPO mRNA LNP
[5] = mouse serum 6 hours post single IM injection of 0.1 μg hEPO mRNA LNP
[6] = Table 4, further lipids, mouse serum 6 hours post IM injection of hEPO mRNA LNP as in example 3

| Compound | Polydispersity Index (PDI) [1] | Size (nm) [1] | Encapsulation efficiency (EE) % [2] | hEPO 6 Hr (ng/ml) Mean [3, 4] | hEPO 6 Hr (ng/mL) Mean [3, 5] | hEPO 6 Hr (ng/ml) Mean [3, 6] |
| --- | --- | --- | --- | --- | --- | --- |
| CCCCCC/C=C\COC(=O)CCCCCC(O)CN(CCCC(=O)O[C@@H]1CO[C@H]2[C@@H]1OC[C@@H]2SC(=O)CCCN(CC(O)CCCCCCCCCC)CC(O)CCCCCCCCCC)CC(O)CCCCCC(=O)OC/C=C\CCCCCC (stereo partly shown) [Compound 34] | 0.1 | 84 nm | 92% | 33.8 ng/mL |  |  |
| CCCCCC/C=C\COC(=O)CCCCCC(O)CN(CCCC(=O)O[C@@H]1CO[C@H]2[C@@H]1OC[C@H]2OC(=O)CCCN(CC(O)CCCCCCCCCC)CC(O)CCCCCCCCCC)CC(O)CCCCCC(=O)OC/C=C\CCCCCC (stereo partly shown) [Compound 15] | 0.11 | 88 nm | 91% |  | 22.8 ng/mL |  |
| CCCCCC/C=C\COC(=O)CCCCCC(O)CN(CCCC(=O)O[C@H]1CO[C@H]2[C@@H]1OC[C@H]2OC(=O)CCCN(CC(O)CCCCCC(=O)OC/C=C\CCCCCC)CC(O)CCCCCC(=O)OC/C=C\CCCCCC)CC(O)CCCCCC(=O)OC/C=C\CCCCCC (stereo partly shown) [Compound 35] | 0.08 | 92 nm | 82% | 28.5 ng/mL |  |  |
| CCCCCCCCCCC(O)CN(CCCSC(=O)N[C@H]1CO[C@H]2[C@@H]1OC[C@@H]2NC(=O)SCCCN(CC(O)CCCCCCCCCC)CC(O)CCCCCCCCCC)CC(O)CCCCCCCCCC (stereo partly shown) [Compound 54] | 1.6 | 79 nm | 87% |  |  | 12.0 ng/mL |
| CCCCCC/C=C\COC(=O)CCCCCC(O)CN(CCCC(=O)O[C@@H]1CO[C@H]2[C@@H]1OC[C@H]2OC(=O)CCCN(CC(O)CCCCCC(=O)OC/C=C\CCCCCC)CC(O)CCCCCC(=O)OC/C=C\CCCCCC)CC(O)CCCCCC(=O)OC/C=C\CCCCCC (stereo partly shown) [Compound 16] | 0.11 | 84 nm | 77% |  | 9.4 ng/mL |  |
| CCCCCCCCCCCOC(=O)CCCC(O)CN(CCCC(=O)O[C@@H]1CO[C@H]2[C@@H]1OC[C@H]2OC(=O)CCCN(CC(O)CCCCCC(=O)OC(CCCCCCCC)CCCCCCCC)CC(O)CCCC(=O)OCCCCCCCCCCC)CC(O)CCCCCC(=O)OC(CCCCCCCC)CCCCCCCC (stereo partly shown) [Compound 11] | 0.1 | 120 nm | 94% |  | 36 ng/mL |  |
| CCCCCCCCCCCCC(O)CN(CCCCC(=O)O[C@H]1CO[C@H]2[C@@H]1OC[C@H]2OC(=O)CCCCN(CC(O)CCCCCCCCCCCC)CC(O)CCCCCCCCCCCC)CC(O)CCCCCCCCCCCC (stereo partly shown) [Compound 28] | 0.103 | 91 nm | 94% | 40.2 ng/mL |  |  |
| CCCCCCCCCCCCCCCCC(O)CN(CCCC(=O)O[C@H]1CO[C@H]2[C@@H]1OC[C@H]2OC(=O)CCCN(CC(O)CCCCCCCCCCCCCCCC)CC(O)CCCCCCCCCCCCCCCC)CC(O)CCCCCCCCCCCCCCCC (stereo partly shown) [Compound 30] | 0.16 | 106 nm | 94% | 25.2 ng/mL |  |  |
| CCCCCCCCCCC(O)CN(CCCC(=O)O[C@H]1CO[C@H]2[C@@H]1OC[C@H]2OC(=O)CCCN(CC(O)CCCCCCCCCC)CC(O)CCCCCCCCCC)CC(O)CCCCCCCCCC (stereo partly shown) [Compound 29] | 0.13 | 126 nm | 96% | 38.4 ng/mL |  |  |
| CCCCCCCCCCC(O)CN(CCCC(=O)O[C@H]1CO[C@H]2[C@@H]1OC[C@H]2OC(=O)CCCN(CC(O)CCCCCCCC)CC(O)CCCCCCCC)CC(O)CCCCCCCCCC (stereo partly shown) [Compound 22] | 0.1 | 75 nm | 91% | 34.1 ng/mL |  |  |
| CCCCCCCCCCCOC(=O)CCCC(O)CN(CCCC(=O)O[C@@H]1CO[C@H]2[C@@H]1OC[C@@H]2OC(=O)CCCN(CC(O)CCCCCCCCCC)CC(O)CCCCCCCCCC)CC(O)CCCCCC(=O)OC(CCCCCCCC)CCCCCCCC (stereo in doubt) [Compound 32] | 0.2 | 94 nm | 94% | 33.2 ng/mL |  |  |
| CCCCCCCCCCCCC(O)CN(CCCC(=O)N[C@H]1CO[C@H]2[C@@H]1OC[C@@H]2NC(=O)CCCN(CC(O)CCCCCCCCCCCC)CC(O)CCCCCCCCCCCC)CC(O)CCCCCCCCCCCC (stereo partly shown) [Compound 55] | 0.15 | 101 nm | 99% |  |  | 30.9 ng/mL |
| CCCCCCCCC(O)CN(CCCCC(=O)O[C@@H]1CO[C@H]2[C@@H]1OC[C@H]2OC(=O)CCCCN(CC(O)CCCCCCCC)CC(O)CCCCCCCC)CC(O)CCCCCCCC (stereo partly shown) [Compound 2] | 0.16 | 77 nm | 68% |  | 36.3 ng/mL |  |
